In patent publication US20240190828A1, “Small Molecule Inhibitors of PBRM1-BD2” (The Medical College of Wisconsin, Inc., priority 2021, published 2024):
Read-outs that look alike come from different tables or passages of the source.

Legend:
[1] = biological target: BRD4-BD2 (Homo sapiens (Human), UniProt O60885); assay: DSF selectivity profiling; assay type: binding
Method: (§1) Differential Scanning Fluorimetry (DSF). Bromodomain DSF Tm assays were performed using an Mx3005P (Stratagene) PCR detection system and low profile 96-well PCR plates (UltraFlux, Flat Top, SSI 3400-00S). […] The temperature was raised by 1° C./min from 25-95° C., and fluorescence readings were taken at each interval. Melting curves were analyzed using our online interactive fitting tool for thermofluor experiments (https://dsf-analysis.herokuapp.com/DSF-analysis) and plotted using GraphPad Prism.

[2] = biological target: PBRM1-BD4 (Homo sapiens (Human), UniProt Q86U86); assay: DSF selectivity profiling; assay type: binding
Method: as §1

[3] = biological target: BRDT-BD1 (Homo sapiens (Human), UniProt Q58F21); assay: DSF selectivity profiling; assay type: binding
Method: as §1

[4] = biological target: PBRM1-BD1 (Homo sapiens (Human), UniProt Q86U86); assay: DSF selectivity profiling; assay type: binding
Method: as §1

[5] = biological target: BRD3-BD1 (Homo sapiens (Human), UniProt Q15059); assay: DSF selectivity profiling; assay type: binding
Method: as §1

[6] = biological target: SMARCA2 (Homo sapiens (Human), UniProt P51531); assay: DSF selectivity profiling; assay type: binding
Method: as §1

[7] = biological target: PBRM1-BD6 (Homo sapiens (Human), UniProt Q86U86); assay: DSF selectivity profiling; assay type: binding
Method: as §1

[8] = biological target: p300 (Homo sapiens (Human), UniProt Q09472); assay: DSF selectivity profiling; assay type: binding
Method: as §1

[9] = biological target: PBRM1-BD3 (Homo sapiens (Human), UniProt Q86U86); assay: DSF selectivity profiling; assay type: binding
Method: as §1

[10] = biological target: BRD2-BD2 (Homo sapiens (Human), UniProt P25440); assay: DSF selectivity profiling; assay type: binding
Method: as §1

[11] = biological target: BRD7 (Homo sapiens (Human), UniProt Q9NPI1); assay: DSF selectivity profiling; assay type: binding
Method: as §1

[12] = biological target: BRD3-BD2 (Homo sapiens (Human), UniProt Q15059); assay: DSF selectivity profiling; assay type: binding
Method: as §1

[13] = biological target: CECR2 (Homo sapiens (Human), UniProt Q9BXF3); assay: DSF selectivity profiling; assay type: binding
Method: as §1

[14] = biological target: BRD4-BD1 (Homo sapiens (Human), UniProt O60885); assay: DSF selectivity profiling; assay type: binding
Method: as §1

[15] = biological target: TRIM33A (Homo sapiens (Human), UniProt Q9UPN9); assay: DSF selectivity profiling; assay type: binding
Method: as §1

[16] = biological target: ASH1L (Homo sapiens (Human), UniProt Q9NR48); assay: DSF selectivity profiling; assay type: binding
Method: as §1

[17] = biological target: PCAF (Homo sapiens (Human), UniProt Q92831); assay: DSF selectivity profiling; assay type: binding
Method: as §1

[18] = biological target: CREBBP (Homo sapiens (Human), UniProt Q92793); assay: DSF selectivity profiling; assay type: binding
Method: as §1

[19] = biological target: SMARCA4 (Homo sapiens (Human), UniProt P51532); assay: DSF selectivity profiling; assay type: binding
Method: as §1

[20] = biological target: T1, PBRM1-BD2 (Homo sapiens (Human), UniProt Q86U86); assay: biochemical; assay type: binding; conditions: for ΔTm at 100 µM: read-out: PBRM1-BD2 ΔTm, DSF, 10 μM protein, 100 μM inhibitor, vs apoprotein
Method: DSF measures protein unfolding by monitoring the fluorescence of the SYPRO Orange dye as a function of temperature; positive thermal shifts indicate ligand binding induced stabilization of the protein.
as §1

[21] = biological target: T2, PBRM1-BD5 (Homo sapiens (Human), UniProt Q86U86); conditions: DSF
[22] = biological target: T1, PBRM1-BD2; assay: biochemical; assay type: binding
Method: Protein-detected NMR-based fragment screening has the advantage of providing information about both binding affinity and the amino acid residues involved in binding.
NMR spectroscopy. Automated NMR data collection was performed on ^15N-labeled PBRM1-BD2 (50 μM) by using ^1H,^15N SOFAST-HMQC experiments. […] The total time for screening 85 or 82 samples each containing 12 fragments or DMSO by ^1H,^15N SOFAST-HMQC was 46 h (˜32 min/sample). […] All NMR data were processed using NMRPipe^4 in NMRbox.^5 Spectra were processed by using in-house automated Python scripts in NMRPipe,^4 and chemical shifts perturbation were analyzed using SPARKY.^6 Total ^1H/^15N chemical shift perturbations and equilibrium dissociation constants (Kd) were calculated as reported.^2

[23] = biological target: T2, PBRM1-BD5; conditions: read-out: Kd PBRM1-BD5; ITC; NB = did not bind
Method: (§2) Binding affinities of inhibitors towards PBRM1-BD2, PBRM1-BD5, SMARCA2, SMARCA4, and ASH1L were determined using a VP-ITC instrument (MicroCal). […] Protein concentrations were determined via the method of Bradford.^1 The buffer used for all ITC experiments consisted of 50 mM HEPES (pH 7.5 at 20° C.), 500 mM NaCl, 5% v/v glycerol, and 1% v/v DMSO; except for experiments involving PBRM1-BD2 whose buffer consisted of 100 mM Na2PO4 (pH 7.5 at 20° C.), 100 mM NaCl, 5% v/v glycerol, and 1% v/v DMSO. Kd values were determined by least-squares fitting to the raw data using Origin (OriginLab).

[24] = biological target: T1, PBRM1-BD2; assay: AlphaScreen competition assay, His6-tagged PBRM1-BD2 and biotinylated H3K14ac peptide; assay type: binding; conditions: 0.2 μM His6-PBRM1-BD2, 0.1 μM biotinylated H3K14ac peptide
[25] = biological target: T1, PBRM1-BD2; conditions: read-out: Kd PBRM1-BD2; ITC; NB = did not bind (heat below 0.1 μcal per second)
Method: as §2

[26] = tested on: PC3 cells; assay: Cell viability assay (CellTiter-Glo); assay type: cell-based, human; conditions: 10, 1 and 0.1 μM
Method: Cell Viability Assays. Cells were seeded in a 96-well plate and incubated for 12-24 h prior to initial treatment. The number of cells per well was chosen empirically based on cell growth rates (LNCaP-5,000 cells/well, PC3 and RWPE-1-3,000 cells per well, HEK293T-1,000 cells/well). Cells were treated with either DMSO control or serial dilutions of inhibitors and media with compound was refreshed every 48 h.

T1 sequence (Q86U86 177-287): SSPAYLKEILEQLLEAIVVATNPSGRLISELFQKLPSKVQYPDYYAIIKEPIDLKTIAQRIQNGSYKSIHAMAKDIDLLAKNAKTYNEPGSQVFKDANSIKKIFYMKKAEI
T2 sequence (Q86U86 653-763): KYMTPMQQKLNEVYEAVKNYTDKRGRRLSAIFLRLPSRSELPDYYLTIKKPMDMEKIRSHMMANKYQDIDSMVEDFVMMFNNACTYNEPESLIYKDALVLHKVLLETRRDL
Sequence of BRD3-BD2 (Q15059 306-415): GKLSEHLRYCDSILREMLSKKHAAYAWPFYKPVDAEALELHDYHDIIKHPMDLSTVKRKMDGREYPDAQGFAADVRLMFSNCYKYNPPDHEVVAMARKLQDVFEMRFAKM
Sequence of CREBBP (Q92793 1085-1192): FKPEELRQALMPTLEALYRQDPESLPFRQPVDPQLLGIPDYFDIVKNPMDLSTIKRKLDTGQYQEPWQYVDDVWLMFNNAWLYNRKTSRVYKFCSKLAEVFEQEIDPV
Sequence of p300 (Q09472 1049-1156): as the sequence (Q92793 1085-1192) above, with N47S, V73I, F93Y, A98S counted along it
Sequence of TRIM33A (Q9UPN9 957-1080): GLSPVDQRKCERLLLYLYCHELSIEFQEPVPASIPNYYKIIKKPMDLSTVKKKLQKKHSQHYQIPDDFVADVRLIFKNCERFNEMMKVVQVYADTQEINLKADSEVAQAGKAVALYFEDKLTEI
Sequence of SMARCA2 (P51531 1378-1506): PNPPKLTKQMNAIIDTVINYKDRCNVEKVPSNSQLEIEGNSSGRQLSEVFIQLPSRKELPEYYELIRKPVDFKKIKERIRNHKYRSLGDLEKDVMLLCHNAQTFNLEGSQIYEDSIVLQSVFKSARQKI
Sequence of PBRM1-BD3 (Q86U86 381-487): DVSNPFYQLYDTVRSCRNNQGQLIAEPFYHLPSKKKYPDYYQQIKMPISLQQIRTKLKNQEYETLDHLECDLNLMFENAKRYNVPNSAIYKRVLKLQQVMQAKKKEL
Sequence of BRD3-BD1 (Q15059 34-140): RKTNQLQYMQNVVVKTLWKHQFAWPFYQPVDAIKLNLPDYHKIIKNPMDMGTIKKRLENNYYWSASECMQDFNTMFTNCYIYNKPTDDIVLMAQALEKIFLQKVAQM
Sequence of BRD7 (Q9NPI1 131-235): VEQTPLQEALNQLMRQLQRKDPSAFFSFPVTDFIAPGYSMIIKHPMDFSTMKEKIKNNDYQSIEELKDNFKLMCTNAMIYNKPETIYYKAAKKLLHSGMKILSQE
Sequence of SMARCA4 (P51532 1453-1564): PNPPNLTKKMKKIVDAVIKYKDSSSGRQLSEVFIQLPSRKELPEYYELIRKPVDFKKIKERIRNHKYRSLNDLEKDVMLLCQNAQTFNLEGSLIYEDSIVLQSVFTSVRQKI
Sequence of PCAF (Q92831 723-827): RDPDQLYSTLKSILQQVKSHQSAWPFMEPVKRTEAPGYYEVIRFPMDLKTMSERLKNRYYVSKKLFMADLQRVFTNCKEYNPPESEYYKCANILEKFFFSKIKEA
Sequence of PBRM1-BD1 (Q86U86 41-151): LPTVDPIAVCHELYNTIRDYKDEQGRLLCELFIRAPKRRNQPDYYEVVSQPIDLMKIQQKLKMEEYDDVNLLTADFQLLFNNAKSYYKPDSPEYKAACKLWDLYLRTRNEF
Sequence of BRD2-BD2 (P25440 344-453): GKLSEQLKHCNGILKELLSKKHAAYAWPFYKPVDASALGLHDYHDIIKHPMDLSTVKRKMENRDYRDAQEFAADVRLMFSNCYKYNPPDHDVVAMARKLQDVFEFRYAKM
Sequence of PBRM1-BD4 (Q86U86 518-625): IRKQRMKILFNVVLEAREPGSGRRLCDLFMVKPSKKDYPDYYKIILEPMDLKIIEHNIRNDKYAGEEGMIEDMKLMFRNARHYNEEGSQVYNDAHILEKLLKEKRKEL
Sequence of CECR2 (Q9BXF3 434-538): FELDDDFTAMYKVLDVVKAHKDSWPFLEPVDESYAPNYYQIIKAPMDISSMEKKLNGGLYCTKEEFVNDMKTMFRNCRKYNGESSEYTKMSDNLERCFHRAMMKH
Sequence of PBRM1-BD6 (Q86U86 769-879): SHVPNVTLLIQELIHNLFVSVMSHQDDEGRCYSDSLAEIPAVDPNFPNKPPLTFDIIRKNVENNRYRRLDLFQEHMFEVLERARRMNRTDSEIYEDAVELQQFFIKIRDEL

Structure (SMILES): CN(C)/C=C1\CCn2c1nc(=O)c1c(Cl)cccc12 [Compound 2, (E)-6-Chloro-3-((dimethylamino)methylene)-2,3-dihydropyrrolo[1,2-a]quinazolin-5(1H)-one, reference compound]
- BRD4-BD2 ΔTm [1]: −0.6 °C
- PBRM1-BD4 ΔTm [2]: 0.3 °C
- BRDT-BD1 ΔTm [3]: −0.1 °C
- PBRM1-BD1 ΔTm [4]: −0.1 °C
- BRD3-BD1 ΔTm [5]: 0.1 °C
- SMARCA2 ΔTm [6]: 2.2 °C
- PBRM1-BD6 ΔTm [7]: −1.4 °C
- p300 ΔTm [8]: −0.6 °C
- PBRM1-BD3 ΔTm [9]: 2.6 °C
- BRD2-BD2 ΔTm [10]: −0.2 °C
- BRD7 ΔTm [11]: 1.2 °C
- BRD3-BD2 ΔTm [12]: 0.5 °C
- CECR2 ΔTm [13]: 2.0 °C
- BRD4-BD1 ΔTm [14]: 0.1 °C
- TRIM33A ΔTm [15]: −0.9 °C
- ASH1L ΔTm [16]: −0.7 °C
- PCAF ΔTm [17]: −0.2 °C
- CREBBP ΔTm [18]: 0.1 °C
- SMARCA4 ΔTm [19]: 2 °C
- ΔTm at 100 µM [20]: 3.3 ± 0.4 °C
- PBRM1-BD5 ΔTm [21]: 7.7 °C

Structure (SMILES): O=C1NC(c2c(F)cccc2Cl)Nc2ccccc21 (centres unmarked) [Compound 5, 2-(2-Chloro-6-fluorophenyl)-2,3-dihydroquinazolin-4(1H)-one]
- Kd [22]: 50 µM
- Kd ([22]; NMR titration, chemical shift perturbations vs fragment concentration, read-out: Kd): 45.3 ± 8.1 µM
- Kd [23]: 179 µM
- ΔTm at 100 µM [20]: 1 ± 0.2 °C
- IC50 [24]: 4.2 ± 1.3 µM
- Kd [25]: 18.4 µM

Structure (SMILES): NC(=S)c1ccc(F)cc1 [Compound 6h]
- Kd ([22]; read-out: Kd): > 2000 µM

Structure (SMILES): COc1cccc(OCC(F)(F)F)c1C#N [Compound 6i]
- Kd ([22]; read-out: Kd): > 2000 µM

Structure (SMILES): N#Cc1ncccc1N1CCCCC1 [Compound 6j]
- Kd ([22]; read-out: Kd): > 2000 µM

Structure (SMILES): CCC(/C=C1\CCn2c1nc(=O)c1c(Cl)cccc12)CC [Compound 7, (E)-6-Chloro-3-(2-ethylbutylidene)-2,3-dihydropyrrolo[1,2-a]quinazolin-5(1H)-one, reference compound]
- BRD4-BD2 ΔTm [1]: −1.1 °C
- PBRM1-BD4 ΔTm [2]: 3.9 °C
- BRDT-BD1 ΔTm [3]: −0.8 °C
- PBRM1-BD1 ΔTm [4]: −0.9 °C
- BRD3-BD1 ΔTm [5]: −0.3 °C
- SMARCA2 ΔTm [6]: 3.0 °C
- PBRM1-BD6 ΔTm [7]: −1.5 °C
- p300 ΔTm [8]: −0.5 °C
- PBRM1-BD3 ΔTm [9]: 2.8 °C
- BRD2-BD2 ΔTm [10]: 0.6 °C
- BRD7 ΔTm [11]: 0.4 °C
- BRD3-BD2 ΔTm [12]: 0.4 °C
- CECR2 ΔTm [13]: −0.9 °C
- BRD4-BD1 ΔTm [14]: −0.2 °C
- TRIM33A ΔTm [15]: 0.3 °C
- PCAF ΔTm [17]: 0.4 °C
- CREBBP ΔTm [18]: −0.7 °C
- SMARCA4 ΔTm [19]: 3.1 °C
- PBRM1-BD2 ΔTm ([20]; DSF, 10 μM protein, 100 μM inhibitor, vs apoprotein): > 7.5 °C
- ΔTm at 100 µM [20]: 7.7 °C
- PBRM1-BD5 ΔTm [21]: 11.0 °C
- growth inhibition of PC3 cells [26]: more significant inhibition of PBRM1-independent prostate cancer cell line PC3

Structure (SMILES): CCC(/C=C1\CCn2c1nc(=O)c1ccccc12)CC [Compound 8, (E)-3-(2-Ethylbutylidene)-2,3-dihydropyrrolo[1,2-a]quinazolin-5(1H)-one, reference compound]
- ASH1L ΔTm [16]: did not show binding
